Experimental data from the kinase profiling compilation of Christmann-Franck et al. (2016).

How the values were obtained:
Test in all cases: radiometric filter-binding kinase assay, Kinase HotSpot
Details in all cases: compound 0.5 µM; ATP 10 µM
DCLK2 (human) = DCLK2 (human) (UniProt Q8N568)
PRKX (human) = PRKX (human) (UniProt P51817)
PRKCE (human) = PRKCE (human) (UniProt Q02156)
STK11 (human) = STK11 (human) (UniProt Q15831)
CSNK1A1 (human) = CSNK1A1 (human) (UniProt P48729)
SLK (human) = SLK (human) (UniProt Q9H2G2)
FER (human) = FER (human) (UniProt P16591)
PRKD3 (human) = PRKD3 (human) (UniProt O94806)
FLT1 (human) = FLT1 (human) (UniProt P17948)
CDK5 CDK5R1 p35 (human) = CDK5 CDK5R1 p35 (human) (UniProt Q00535+Q15078)
CLK2 (human) = CLK2 (human) (UniProt P49760)
DYRK1A (human) = DYRK1A (human) (UniProt Q13627)
MAP3K14 (human) = MAP3K14 (human) (UniProt Q99558)
PRKCD (human) = PRKCD (human) (UniProt Q05655)
RPS6KB1 (human) = RPS6KB1 (human) (UniProt P23443)
CAMK2D (human) = CAMK2D (human) (UniProt Q13557)
CDK4 CCND3 (human) = CDK4 CCND3 (human) (UniProt P30281+P11802)
DAPK3 (human) = DAPK3 (human) (UniProt O43293)
CDK9 CCNK (human) = CDK9 CCNK (human) (UniProt O75909+P50750)
CSNK1E (human) = CSNK1E (human) (UniProt P49674)
AKT3 (human) = AKT3 (human) (UniProt Q9Y243)
STK33 (human) = STK33 (human) (UniProt Q9BYT3)
ACVR1B (human) = ACVR1B (human) (UniProt P36896)
PRKD1 (human) = PRKD1 (human) (UniProt Q15139)
DSTYK (human) = DSTYK (human) (UniProt Q6XUX3)
PAK4 (human) = PAK4 (human) (UniProt O96013)
STK17A (human) = STK17A (human) (UniProt Q9UEE5)
SGK2 (human) = SGK2 (human) (UniProt Q9HBY8)
PKN1 (human) = PKN1 (human) (UniProt Q16512)
CSNK2A1 (human) = CSNK2A1 (human) (UniProt P68400)
ABL1 (human) = ABL1 (human) (UniProt P00519)
MAPK8 (human) = MAPK8 (human) (UniProt P45983)
PAK7 (human) = PAK7 (human) (UniProt Q9P286)
IKBKE (human) = IKBKE (human) (UniProt Q14164)
GRK5 (human) = GRK5 (human) (UniProt P34947)
HIPK3 (human) = HIPK3 (human) (UniProt Q9H422)
IKBKB (human) = IKBKB (human) (UniProt O14920)
PKN2 (human) = PKN2 (human) (UniProt Q16513)
PHKG1 (human) = PHKG1 (human) (UniProt Q16816)
ULK2 (human) = ULK2 (human) (UniProt Q8IYT8)
JAK2 JH1 JH2 (human) = JAK2 JH1 JH2 (human) (UniProt O60674)
MET (human) = MET (human) (UniProt P08581)

AKT3 (human), sequence (Q9Y243 whole entry, looked up): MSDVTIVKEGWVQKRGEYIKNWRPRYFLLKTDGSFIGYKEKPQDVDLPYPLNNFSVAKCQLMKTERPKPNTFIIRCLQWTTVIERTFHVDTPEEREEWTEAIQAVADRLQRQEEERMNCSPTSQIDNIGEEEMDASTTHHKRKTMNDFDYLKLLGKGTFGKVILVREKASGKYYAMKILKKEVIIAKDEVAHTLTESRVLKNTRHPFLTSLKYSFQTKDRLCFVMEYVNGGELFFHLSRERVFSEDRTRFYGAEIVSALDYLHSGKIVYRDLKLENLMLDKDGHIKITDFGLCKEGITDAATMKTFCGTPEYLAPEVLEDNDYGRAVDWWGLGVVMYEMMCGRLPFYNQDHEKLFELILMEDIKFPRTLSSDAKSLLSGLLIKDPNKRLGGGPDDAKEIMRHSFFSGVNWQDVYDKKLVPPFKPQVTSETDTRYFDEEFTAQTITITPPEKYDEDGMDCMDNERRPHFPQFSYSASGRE
DCLK2 (human), sequence (Q8N568 whole entry, looked up): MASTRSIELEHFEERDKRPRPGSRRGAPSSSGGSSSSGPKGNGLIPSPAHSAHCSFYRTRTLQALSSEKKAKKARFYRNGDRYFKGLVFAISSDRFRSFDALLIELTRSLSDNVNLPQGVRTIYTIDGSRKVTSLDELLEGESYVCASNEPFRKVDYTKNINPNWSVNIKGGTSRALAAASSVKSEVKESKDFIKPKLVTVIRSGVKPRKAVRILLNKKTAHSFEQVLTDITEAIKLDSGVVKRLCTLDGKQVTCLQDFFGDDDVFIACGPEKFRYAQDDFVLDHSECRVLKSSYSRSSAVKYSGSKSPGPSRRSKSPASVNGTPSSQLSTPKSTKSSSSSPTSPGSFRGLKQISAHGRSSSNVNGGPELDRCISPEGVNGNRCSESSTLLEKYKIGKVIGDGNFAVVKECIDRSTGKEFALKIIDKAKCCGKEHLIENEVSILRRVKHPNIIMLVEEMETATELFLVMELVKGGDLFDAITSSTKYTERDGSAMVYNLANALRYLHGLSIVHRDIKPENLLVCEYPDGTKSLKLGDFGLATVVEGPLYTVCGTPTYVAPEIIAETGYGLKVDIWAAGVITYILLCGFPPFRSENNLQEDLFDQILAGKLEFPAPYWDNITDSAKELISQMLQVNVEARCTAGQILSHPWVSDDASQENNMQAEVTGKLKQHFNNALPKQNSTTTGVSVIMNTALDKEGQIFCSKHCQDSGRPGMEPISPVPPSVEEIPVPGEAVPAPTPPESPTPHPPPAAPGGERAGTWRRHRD
PKN1 (human), sequence (Q16512 whole entry, looked up): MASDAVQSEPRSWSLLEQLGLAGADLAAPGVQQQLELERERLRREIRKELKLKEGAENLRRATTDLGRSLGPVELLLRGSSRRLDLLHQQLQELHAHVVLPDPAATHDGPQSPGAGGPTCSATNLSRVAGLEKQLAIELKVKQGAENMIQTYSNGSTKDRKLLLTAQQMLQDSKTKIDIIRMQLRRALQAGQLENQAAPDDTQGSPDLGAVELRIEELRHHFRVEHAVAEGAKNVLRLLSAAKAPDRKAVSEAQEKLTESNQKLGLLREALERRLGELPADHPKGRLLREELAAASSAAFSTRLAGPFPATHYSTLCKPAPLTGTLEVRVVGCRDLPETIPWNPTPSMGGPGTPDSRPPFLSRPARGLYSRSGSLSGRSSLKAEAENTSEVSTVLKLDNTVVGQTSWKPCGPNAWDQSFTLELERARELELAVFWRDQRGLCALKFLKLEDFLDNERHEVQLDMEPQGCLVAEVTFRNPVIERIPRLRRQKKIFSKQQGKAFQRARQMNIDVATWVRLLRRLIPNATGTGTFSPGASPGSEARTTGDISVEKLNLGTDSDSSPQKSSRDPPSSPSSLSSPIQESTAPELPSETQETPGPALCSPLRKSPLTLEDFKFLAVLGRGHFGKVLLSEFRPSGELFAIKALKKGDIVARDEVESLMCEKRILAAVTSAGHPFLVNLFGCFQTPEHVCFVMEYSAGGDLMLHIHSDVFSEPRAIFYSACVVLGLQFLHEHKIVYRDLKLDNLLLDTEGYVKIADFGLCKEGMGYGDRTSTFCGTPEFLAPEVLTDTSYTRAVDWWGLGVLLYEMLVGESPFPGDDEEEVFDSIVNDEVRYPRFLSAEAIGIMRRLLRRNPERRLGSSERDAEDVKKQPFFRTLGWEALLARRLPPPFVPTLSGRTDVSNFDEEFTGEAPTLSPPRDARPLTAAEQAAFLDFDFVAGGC
STK33 (human), sequence (Q9BYT3 whole entry, looked up): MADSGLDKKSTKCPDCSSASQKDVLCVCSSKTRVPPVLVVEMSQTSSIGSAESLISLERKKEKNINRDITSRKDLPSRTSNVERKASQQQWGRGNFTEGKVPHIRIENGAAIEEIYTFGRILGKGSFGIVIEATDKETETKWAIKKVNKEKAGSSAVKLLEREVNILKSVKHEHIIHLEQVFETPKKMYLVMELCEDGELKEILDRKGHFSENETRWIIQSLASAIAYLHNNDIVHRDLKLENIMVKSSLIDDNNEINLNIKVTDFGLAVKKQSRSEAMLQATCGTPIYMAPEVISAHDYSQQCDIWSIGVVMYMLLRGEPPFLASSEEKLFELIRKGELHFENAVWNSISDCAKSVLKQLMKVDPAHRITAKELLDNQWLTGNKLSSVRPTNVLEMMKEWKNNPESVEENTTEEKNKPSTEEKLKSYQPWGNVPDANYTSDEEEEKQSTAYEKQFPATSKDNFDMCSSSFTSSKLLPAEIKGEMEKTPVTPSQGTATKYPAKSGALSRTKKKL
ACVR1B (human), sequence (P36896 whole entry, looked up): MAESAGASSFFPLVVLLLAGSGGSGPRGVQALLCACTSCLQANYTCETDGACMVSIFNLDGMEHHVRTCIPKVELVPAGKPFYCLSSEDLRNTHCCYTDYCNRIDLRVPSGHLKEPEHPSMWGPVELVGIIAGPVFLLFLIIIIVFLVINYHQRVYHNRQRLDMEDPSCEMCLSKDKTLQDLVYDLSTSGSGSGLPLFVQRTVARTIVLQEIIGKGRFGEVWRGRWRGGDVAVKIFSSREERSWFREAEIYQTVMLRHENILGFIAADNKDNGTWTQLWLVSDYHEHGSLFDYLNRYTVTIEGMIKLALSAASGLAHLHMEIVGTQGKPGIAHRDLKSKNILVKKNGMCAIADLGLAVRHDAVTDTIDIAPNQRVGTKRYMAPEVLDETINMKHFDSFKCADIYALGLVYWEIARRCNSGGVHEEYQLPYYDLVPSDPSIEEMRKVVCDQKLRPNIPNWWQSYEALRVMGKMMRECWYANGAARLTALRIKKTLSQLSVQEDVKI
MAPK8 (human), sequence (P45983 whole entry, looked up): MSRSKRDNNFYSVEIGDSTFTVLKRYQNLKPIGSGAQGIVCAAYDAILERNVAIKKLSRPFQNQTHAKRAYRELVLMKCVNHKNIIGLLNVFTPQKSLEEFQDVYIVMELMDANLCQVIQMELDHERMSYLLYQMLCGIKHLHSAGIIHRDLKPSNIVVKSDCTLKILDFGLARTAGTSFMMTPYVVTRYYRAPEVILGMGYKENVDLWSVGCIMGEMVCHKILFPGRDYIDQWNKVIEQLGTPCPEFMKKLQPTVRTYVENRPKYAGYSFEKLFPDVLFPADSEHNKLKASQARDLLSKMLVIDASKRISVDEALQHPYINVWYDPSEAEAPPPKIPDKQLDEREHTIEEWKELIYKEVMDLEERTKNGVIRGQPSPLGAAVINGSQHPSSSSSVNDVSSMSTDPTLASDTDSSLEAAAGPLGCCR
PRKD1 (human), sequence (Q15139 whole entry, looked up): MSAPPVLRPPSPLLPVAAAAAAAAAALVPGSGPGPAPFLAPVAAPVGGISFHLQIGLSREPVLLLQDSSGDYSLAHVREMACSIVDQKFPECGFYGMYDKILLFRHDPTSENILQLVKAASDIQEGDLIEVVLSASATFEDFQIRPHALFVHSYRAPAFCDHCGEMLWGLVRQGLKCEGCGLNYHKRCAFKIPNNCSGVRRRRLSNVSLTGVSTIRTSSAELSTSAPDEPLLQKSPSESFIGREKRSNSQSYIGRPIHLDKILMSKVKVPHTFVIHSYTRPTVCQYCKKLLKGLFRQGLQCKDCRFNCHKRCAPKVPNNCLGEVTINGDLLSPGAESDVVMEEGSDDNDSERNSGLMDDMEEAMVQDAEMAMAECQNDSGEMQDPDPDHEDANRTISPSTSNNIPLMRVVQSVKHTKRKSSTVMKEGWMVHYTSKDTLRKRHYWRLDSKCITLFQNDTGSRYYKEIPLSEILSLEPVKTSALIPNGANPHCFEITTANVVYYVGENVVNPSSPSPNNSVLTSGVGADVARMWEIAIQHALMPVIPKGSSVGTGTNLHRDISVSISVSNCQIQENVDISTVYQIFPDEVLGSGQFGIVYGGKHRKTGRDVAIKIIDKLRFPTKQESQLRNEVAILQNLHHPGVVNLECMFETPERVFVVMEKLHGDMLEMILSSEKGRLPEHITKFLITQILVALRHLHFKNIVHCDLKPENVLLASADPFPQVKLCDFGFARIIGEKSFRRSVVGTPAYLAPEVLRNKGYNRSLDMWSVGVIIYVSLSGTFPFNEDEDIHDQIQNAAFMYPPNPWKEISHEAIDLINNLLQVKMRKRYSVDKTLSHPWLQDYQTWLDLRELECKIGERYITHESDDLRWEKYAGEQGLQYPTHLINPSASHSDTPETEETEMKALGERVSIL
SGK2 (human), sequence (Q9HBY8 whole entry, looked up): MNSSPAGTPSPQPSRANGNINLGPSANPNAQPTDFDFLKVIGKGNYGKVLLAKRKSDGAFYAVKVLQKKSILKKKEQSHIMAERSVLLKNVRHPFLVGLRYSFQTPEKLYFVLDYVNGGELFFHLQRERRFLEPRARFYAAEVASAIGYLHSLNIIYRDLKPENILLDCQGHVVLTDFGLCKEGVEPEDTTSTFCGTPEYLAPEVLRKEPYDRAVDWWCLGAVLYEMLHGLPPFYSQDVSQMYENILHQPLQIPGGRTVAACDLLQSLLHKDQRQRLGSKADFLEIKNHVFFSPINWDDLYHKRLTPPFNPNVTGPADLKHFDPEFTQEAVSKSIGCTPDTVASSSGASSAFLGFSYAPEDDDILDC

## COc1cc2ncnc(Nc3ccc(Oc4ccccc4)cc3)c2cc1OC
DCLK2 (human)
  residual activity: 99.5%
PRKX (human)
  residual activity: 95.2%
PRKCE (human)
  residual activity: 94.6%
STK11 (human)
  residual activity: 93.6%
CSNK1A1 (human)
  residual activity: 98.2%
SLK (human)
  residual activity: 88.7%
FER (human)
  residual activity: 75.7%
PRKD3 (human)
  residual activity: 95.8%
FLT1 (human)
  residual activity: 79.8%
CDK5 CDK5R1 p35 (human)
  residual activity: 115%
CLK2 (human)
  residual activity: 103%
DYRK1A (human)
  residual activity: 84.6%
MAP3K14 (human)
  residual activity: 93%
PRKCD (human)
  residual activity: 96.8%
RPS6KB1 (human)
  residual activity: 108%
CAMK2D (human)
  residual activity: 97.2%
CDK4 CCND3 (human)
  residual activity: 98.4%
DAPK3 (human)
  residual activity: 96.9%
CDK9 CCNK (human)
  residual activity: 96.7%
CSNK1E (human)
  residual activity: 100%
AKT3 (human)
  residual activity: 105%
STK33 (human)
  residual activity: 96.3%
ACVR1B (human)
  residual activity: 97.5%
PRKD1 (human)
  residual activity: 95.6%
DSTYK (human)
  residual activity: 91.6%
PAK4 (human)
  residual activity: 98.3%
STK17A (human)
  residual activity: 96.3%
SGK2 (human)
  residual activity: 113%
PKN1 (human)
  residual activity: 97.3%
CSNK2A1 (human)
  residual activity: 114%
ABL1 (human)
  residual activity: 81.8%
MAPK8 (human)
  residual activity: 91.8%
PAK7 (human)
  residual activity: 103%
IKBKE (human)
  residual activity: 101%
GRK5 (human)
  residual activity: 97.4%
HIPK3 (human)
  residual activity: 103%
IKBKB (human)
  residual activity: 106%
PKN2 (human)
  residual activity: 93.6%
PHKG1 (human)
  residual activity: 91.8%
ULK2 (human)
  residual activity: 97.8%
JAK2 JH1 JH2 (human)
  residual activity: 95.6%

## N#Cc1c[nH]c2c[nH]/c(=N\Cc3cccnc3)cc2/c1=N\c1ccc(F)c(Cl)c1
DCLK2 (human)
  residual activity: 97.2%
PRKX (human)
  residual activity: 101%
PRKCE (human)
  residual activity: 101%
STK11 (human)
  residual activity: 91.1%
CSNK1A1 (human)
  residual activity: 101%
SLK (human)
  residual activity: 86.6%
FER (human)
  residual activity: 82.9%
PRKD3 (human)
  residual activity: 90.4%
FLT1 (human)
  residual activity: 88%
CDK5 CDK5R1 p35 (human)
  residual activity: 80.4%
CLK2 (human)
  residual activity: 79.9%
DYRK1A (human)
  residual activity: 52.7%
MAP3K14 (human)
  residual activity: 118%
PRKCD (human)
  residual activity: 95.2%
RPS6KB1 (human)
  residual activity: 89.4%
CAMK2D (human)
  residual activity: 103%
CDK4 CCND3 (human)
  residual activity: 101%
DAPK3 (human)
  residual activity: 101%
CDK9 CCNK (human)
  residual activity: 97.3%
CSNK1E (human)
  residual activity: 81.8%
AKT3 (human)
  residual activity: 95.1%
STK33 (human)
  residual activity: 87.4%
ACVR1B (human)
  residual activity: 99%
PRKD1 (human)
  residual activity: 94.5%
DSTYK (human)
  residual activity: 87.3%
PAK4 (human)
  residual activity: 85.4%
STK17A (human)
  residual activity: 79.6%
SGK2 (human)
  residual activity: 98.5%
PKN1 (human)
  residual activity: 101%
CSNK2A1 (human)
  residual activity: 95.9%
ABL1 (human)
  residual activity: 93.4%
MAPK8 (human)
  residual activity: 110%
PAK7 (human)
  residual activity: 98.3%
IKBKE (human)
  residual activity: 90.6%
HIPK3 (human)
  residual activity: 96.5%
IKBKB (human)
  residual activity: 103%
PKN2 (human)
  residual activity: 85.9%
MET (human)
  residual activity: 94.9%
PHKG1 (human)
  residual activity: 92%
ULK2 (human)
  residual activity: 102%
JAK2 JH1 JH2 (human)
  residual activity: 99%

## O=C1C(Cl)=C(N2C(=O)CCC2=O)C(=O)c2ccccc21
DCLK2 (human)
  residual activity: 100%
PRKX (human)
  residual activity: 103%
STK11 (human)
  residual activity: 99.8%
CSNK1A1 (human)
  residual activity: 99.2%
SLK (human)
  residual activity: 104%
FER (human)
  residual activity: 103%
PRKD3 (human)
  residual activity: 88.2%
FLT1 (human)
  residual activity: 87.8%
CDK5 CDK5R1 p35 (human)
  residual activity: 93.7%
CLK2 (human)
  residual activity: 90.7%
DYRK1A (human)
  residual activity: 99.1%
MAP3K14 (human)
  residual activity: 102%
PRKCD (human)
  residual activity: 97.8%
RPS6KB1 (human)
  residual activity: 101%
CAMK2D (human)
  residual activity: 109%
CDK4 CCND3 (human)
  residual activity: 107%
DAPK3 (human)
  residual activity: 114%
CDK9 CCNK (human)
  residual activity: 97.2%
CSNK1E (human)
  residual activity: 102%
AKT3 (human)
  residual activity: 105%
STK33 (human)
  residual activity: 91.5%
ACVR1B (human)
  residual activity: 106%
PRKD1 (human)
  residual activity: 104%
DSTYK (human)
  residual activity: 95.4%
PAK4 (human)
  residual activity: 114%
STK17A (human)
  residual activity: 101%
SGK2 (human)
  residual activity: 99.5%
PKN1 (human)
  residual activity: 108%
CSNK2A1 (human)
  residual activity: 99.3%
ABL1 (human)
  residual activity: 103%
MAPK8 (human)
  residual activity: 122%
PAK7 (human)
  residual activity: 108%
IKBKE (human)
  residual activity: 99.6%
GRK5 (human)
  residual activity: 91.5%
HIPK3 (human)
  residual activity: 112%
IKBKB (human)
  residual activity: 101%
PKN2 (human)
  residual activity: 108%
MET (human)
  residual activity: 109%
PHKG1 (human)
  residual activity: 96.5%
ULK2 (human)
  residual activity: 108%
JAK2 JH1 JH2 (human)
  residual activity: 104%

## CN(C)CCCn1cc(C2=C(c3c[nH]c4ccccc34)C(=O)NC2=O)c2ccccc21
DCLK2 (human)
  residual activity: 95%
PRKX (human)
  residual activity: 85.3%
PRKCE (human)
  residual activity: 0.493%
STK11 (human)
  residual activity: 92.8%
CSNK1A1 (human)
  residual activity: 96.5%
SLK (human)
  residual activity: 45.8%
FER (human)
  residual activity: 69.8%
PRKD3 (human)
  residual activity: 54.6%
FLT1 (human)
  residual activity: 78.1%
CDK5 CDK5R1 p35 (human)
  residual activity: 90%
CLK2 (human)
  residual activity: 28%
DYRK1A (human)
  residual activity: 54.7%
MAP3K14 (human)
  residual activity: 110%
PRKCD (human)
  residual activity: 4.73%
RPS6KB1 (human)
  residual activity: 11.6%
CAMK2D (human)
  residual activity: 38.7%
CDK4 CCND3 (human)
  residual activity: 67%
DAPK3 (human)
  residual activity: 84.5%
CDK9 CCNK (human)
  residual activity: 60.3%
CSNK1E (human)
  residual activity: 96.3%
AKT3 (human)
  residual activity: 31.5%
STK33 (human)
  residual activity: 62.9%
ACVR1B (human)
  residual activity: 106%
PRKD1 (human)
  residual activity: 71.6%
DSTYK (human)
  residual activity: 95%
PAK4 (human)
  residual activity: 93.6%
STK17A (human)
  residual activity: 86.9%
SGK2 (human)
  residual activity: 74.4%
CSNK2A1 (human)
  residual activity: 99.5%
ABL1 (human)
  residual activity: 103%
MAPK8 (human)
  residual activity: 90.2%
PAK7 (human)
  residual activity: 92.8%
IKBKE (human)
  residual activity: 89.4%
GRK5 (human)
  residual activity: 71.6%
HIPK3 (human)
  residual activity: 102%
IKBKB (human)
  residual activity: 119%
PKN2 (human)
  residual activity: 72.1%
MET (human)
  residual activity: 102%
PHKG1 (human)
  residual activity: 31.9%
ULK2 (human)
  residual activity: 145%
JAK2 JH1 JH2 (human)
  residual activity: 93.9%
